Data published in US5563145A, “Rapamycin 42-oximes and hydroxylamines” (American Home Products Corporation, priority 1994, dated 1996).
Read-outs that look alike come from different tables or passages of the source.

Legend:
[1] = tested on: cells from the thymus of normal BALB/c mice (T-cell proliferation); experiment: comitogen-induced thymocyte proliferation procedure (LAF); assay type: cell-based; conditions: for IC50: read-out: LAF IC50; for LAF ratio (compared with rapamycin): ratio >1: inhibited thymocyte proliferation to a greater extent than rapamycin; for LAF percent inhibition of T-cell proliferation: at 0.1 μM
Experimental: (§1) Immunosuppressive activity for representative compounds of this invention was evaluated in an in vitro standard pharmacological test procedure to measure the inhibition of lymphocyte proliferation (LAF) and in two in vivo standard pharmacological test procedures. The pinch skin graft test procedure measures the immunosuppressive activity of the compound tested as well as the ability of the compound tested to inhibit or treat transplant rejection. The adjuvant arthritis standard pharmacological test procedure measures the ability of the compound tested to inhibit immune mediated inflammation. The adjuvant arthritis test procedure is a standard pharmacological test procedure for rheumatoid arthritis. The procedures for these standard pharmacological test procedures are provided below.
The comitogen-induced thymocyte proliferation procedure (LAF) was used as an in vitro measure of the immunosuppressive effects of representative compounds. Briefly, cells from the thymus of normal BALB/c mice are cultured for 72 hours with PHA and IL-1 and pulsed with tritiated thymidine during the last six hours. Cells are cultured with and without various concentrations of rapamycin, cyclosporin A, or test compound. Cells are harvested and incorporated radioactivity is determined. Inhibition of lymphoproliferation is assessed as percent change in counts per minute from non-drug treated controls. For each compound evaluated, rapamycin was also evaluated for the purpose of comparison. An IC50 was obtained for each test compound as well as for rapamycin. […] The results obtained are provided as an IC50 and as the percent inhibition of T-cell proliferation at 0.1 μM. […] A positive ratio indicates immunosuppressive activity. […] Calculation of the ratio is shown below. [formula]

[2] = tested on: pinch skin graft from male BALB/c donors transplanted to male C3H(H-2K) recipients; experiment: in vivo pinch skin graft survival test procedure; set-up: species or system mice: male BALB/c donors, male C3 H(H-2K) recipients; conditions: 4 mg/kg, i.p.; untreated control grafts usually rejected within 6-7 days
Experimental: as §1
Representative compounds of this invention were also evaluated in an in vivo test procedure designed to determine the survival time of pinch skin graft from male BALB/c donors transplanted to male C3 H(H-2K) recipients. The method is adapted from Billingham R. E. and Medawar P. B., J. Exp. Biol. 28:385-402, (1951). Briefly, a pinch skin graft from the donor was grafted on the dorsum of the recipient as a allograft, and an isograft was used as control in the same region. The recipients were treated with either varying concentrations of test compounds intraperitoneally or orally. Rapamycin was used as a test control. Untreated recipients serve as rejection control. The graft was monitored daily and observations were recorded until the graft became dry and formed a blackened scab. This was considered as the rejection day. The mean graft survival time (number of days ±S.D.) of the drug treatment group was compared with the control group. Results are expressed as the mean survival time in days.

[3] = tested on: uninjected hind paw inflammation (immune mediated, Freund's Complete Adjuvant); experiment: adjuvant arthritis standard pharmacological test procedure; assay type: in vivo, male inbred Wistar Lewis rats; conditions: 2 mg/kg, oral, 7 doses, day 16; more negative = more potent
Experimental: as §1
The adjuvant arthritis standard pharmacological test procedure measures the ability of test compounds to prevent immune mediated inflammation and inhibit or treat rheumatoid arthritis. The following briefly describes the test procedure used. A group of rats (male inbread Wistar Lewis rats) are pre-treated with the compound to be tested (1 h prior to antigen) and then injected with Freud's Complete Adjuvant (FCA) in the right hind paw to induce arthritis. The rats are then orally dosed on a Monday, Wednesday, Friday schedule from day 0-14 for a total of 7 doses. Both hind paws are measured on days 16, 23, and 30. The difference in paw volume (mL) from day 16 to day 0 is determined and a percent change from control is obtained. The left hind paw (uninjected paw) inflammation is caused by T-cell mediated inflammation and is recorded as % change from control. The right hind paw inflammation, on the other hand, is caused by nonspecific inflammation. Compounds were tested at a dose of 2 mg/kg.

[4] = tested on: formation of IgE-like antibodies; conditions: in vivo; cited from earlier work
Candida albicans = conditions: in vitro and in vivo; cited from earlier work
adjuvant arthritis model = conditions: a model for rheumatoid arthritis; cited from earlier work
[5] = tested on: experimental allergic encephalomyelitis model; conditions: a model for multiple sclerosis; cited from earlier work
[6] = BALB/c mouse thymocytes, PHA and IL-1, 72 hours, tritiated thymidine last six hours

Row | Molecule | IC50 [1, 6] [nM] | LAF ratio (compared with rapamycin) [1] | Skin graft survival (mean graft survival time ± S.D.) [2] [days] | Percent change in adjuvant arthritis versus control (uninjected paw) [3] [%] | also measured
1 | 42-Deoxy-42-oxorapamycin 42-[O-(phenylmethyl)]-oxime [Example 8] | 21.7 | 0.03 |  |  | 
2 | 42-Deoxy-42-oxorapamycin 42-[O-(prop-2-ynyl)]-oxime [Example 10] | 8.13 | 0.08 | 8.0 ± 1.1 |  | 
3 | 42-Deoxy-42-oxorapamycin 42-[O-(pyridin-4-ylmethyl)]-oxime [Example 6] | 1.8 | 0.31 | 8.0 ± 0.9 |  | 
4 | CO[C@H]1C[C@@H]2CC[C@@H](C)[C@@](O)(O2)C(=O)C(=O)N2CCCC[C@H]2C(=O)O[C@H]([C@H](C)C[C@@H]2CCC(=NO)[C@H](OC)C2)CC(=O)[C@H](C)/C=C(\C)[C@@H](O)[C@@H](OC)C(=O)[C@H](C)C[C@H](C)/C=C/C=C/C=C/1C [Example 2, 42-Deoxo-42-(hydroxyimino)rapamycin] | 3.88 | 0.85 | 10.8 ± 0.4 |  | 
5 | CO[C@H]1C[C@@H]2CC[C@@H](C)[C@@](O)(O2)C(=O)C(=O)N2CCCC[C@H]2C(=O)O[C@H]([C@H](C)C[C@@H]2CCC(NO)[C@H](OC)C2)CC(=O)[C@H](C)/C=C(\C)[C@@H](O)[C@@H](OC)C(=O)[C@H](C)C[C@H](C)/C=C/C=C/C=C/1C (stereo partly shown) [Example 3, 42-Deoxo-42-(hydroxyamino)rapamycin] | 5.6 | 0.18 | 9.6 ± 0.0 | -84 | 
6 | CO[C@H]1C[C@@H]2CC[C@@H](C)[C@@](O)(O2)C(=O)C(=O)N2CCCC[C@H]2C(=O)O[C@H]([C@H](C)C[C@@H]2CCC(=NOC(N)=O)[C@H](OC)C2)CC(=O)[C@H](C)/C=C(\C)[C@@H](O)[C@@H](OC)C(=O)[C@H](C)C[C@H](C)/C=C/C=C/C=C/1C [Example 4, 42-Deoxy-42-oxorapamycin-42-O-carbamoyloxime] | 2 | 0.25 | 9.5 ± 1.1 |  | 
7 | CO[C@H]1C[C@@H]2CC[C@@H](C)[C@@](O)(O2)C(=O)C(=O)N2CCCC[C@H]2C(=O)O[C@H]([C@H](C)C[C@@H]2CCC(=NOCc3ccccn3)[C@H](OC)C2)CC(=O)[C@H](C)/C=C(\C)[C@@H](O)[C@@H](OC)C(=O)[C@H](C)C[C@H](C)/C=C/C=C/C=C/1C [Example 5, 42-Deoxy-42-oxorapamycin 42-[O-(pyridin-2-ylmethyl)]-oxime] | 1.5 | 0.40 | 7.8 ± 0.8 | -53 | 
8 | COC1CC2CCC(C)C(O)(O2)C(=O)C(=O)N2CCCCC2C(=O)OC(C(C)CC2CCC(=NOC(C)(C)C)C(OC)C2)CC(=O)C(C)C=C(C)C(O)C(OC)C(=O)C(C)CC(C)C=CC=CC=C1C (stereo not shown) [Example 7, 2-Deoxy-42-oxoxapamycin 42-[O-(tert-butyl)]-oxime] |  |  |  |  | LAF percent inhibition of T-cell proliferation [1]: 49%
9 | C=CCON=C1CCC(CC(C)C2CC(=O)C(C)C=C(C)C(O)C(OC)C(=O)C(C)CC(C)C=CC=CC=C(C)C(OC)CC3CCC(C)C(O)(O3)C(=O)C(=O)N3CCCCC3C(=O)O2)CC1OC (stereo not shown) [Example 9, 42-Deoxy-42-oxorapamycin 42-(O-allyl)-oxime] |  |  |  |  | LAF percent inhibition of T-cell proliferation [1]: 43%
10 | CO[C@H]1C[C@@H]2CC[C@@H](C)[C@@](O)(O2)C(=O)C(=O)N2CCCC[C@H]2C(=O)O[C@H]([C@H](C)C[C@@H]2CC[C@@H](O)[C@H](OC)C2)CC(=O)[C@H](C)/C=C(\C)[C@@H](O)[C@@H](OC)C(=O)[C@H](C)C[C@H](C)/C=C/C=C/C=C/1C [rapamycin] |  |  | 11.67 ± 0.63 | -70 | inhibition of formation of IgE-like antibodies [4]: effectively inhibited; antifungal activity, particularly against Candida albicans (Candida albicans): antifungal activity, particularly against Candida albicans; effect in adjuvant arthritis model (adjuvant arthritis model): effective; IC50 ([1]; Mus musculus, T-cell): 0.5 to 3.3 nM; effect in experimental allergic encephalomyelitis model [5]: effective
